What was measured:
Assay type in all cases: cell-based
human TLR9 = biological target: T1, human TLR9 (Homo sapiens, UniProt Q9NR96); assay: TLR9 inhibition reporter assay (HEK-Blue cells, SEAP reporter); conditions: HEK-Blue cells overexpressing human TLR9; stimulated with ODN2006 5 nM; 22 hour incubation; SEAP readout
T1 sequence (Q9NR96 26-1032): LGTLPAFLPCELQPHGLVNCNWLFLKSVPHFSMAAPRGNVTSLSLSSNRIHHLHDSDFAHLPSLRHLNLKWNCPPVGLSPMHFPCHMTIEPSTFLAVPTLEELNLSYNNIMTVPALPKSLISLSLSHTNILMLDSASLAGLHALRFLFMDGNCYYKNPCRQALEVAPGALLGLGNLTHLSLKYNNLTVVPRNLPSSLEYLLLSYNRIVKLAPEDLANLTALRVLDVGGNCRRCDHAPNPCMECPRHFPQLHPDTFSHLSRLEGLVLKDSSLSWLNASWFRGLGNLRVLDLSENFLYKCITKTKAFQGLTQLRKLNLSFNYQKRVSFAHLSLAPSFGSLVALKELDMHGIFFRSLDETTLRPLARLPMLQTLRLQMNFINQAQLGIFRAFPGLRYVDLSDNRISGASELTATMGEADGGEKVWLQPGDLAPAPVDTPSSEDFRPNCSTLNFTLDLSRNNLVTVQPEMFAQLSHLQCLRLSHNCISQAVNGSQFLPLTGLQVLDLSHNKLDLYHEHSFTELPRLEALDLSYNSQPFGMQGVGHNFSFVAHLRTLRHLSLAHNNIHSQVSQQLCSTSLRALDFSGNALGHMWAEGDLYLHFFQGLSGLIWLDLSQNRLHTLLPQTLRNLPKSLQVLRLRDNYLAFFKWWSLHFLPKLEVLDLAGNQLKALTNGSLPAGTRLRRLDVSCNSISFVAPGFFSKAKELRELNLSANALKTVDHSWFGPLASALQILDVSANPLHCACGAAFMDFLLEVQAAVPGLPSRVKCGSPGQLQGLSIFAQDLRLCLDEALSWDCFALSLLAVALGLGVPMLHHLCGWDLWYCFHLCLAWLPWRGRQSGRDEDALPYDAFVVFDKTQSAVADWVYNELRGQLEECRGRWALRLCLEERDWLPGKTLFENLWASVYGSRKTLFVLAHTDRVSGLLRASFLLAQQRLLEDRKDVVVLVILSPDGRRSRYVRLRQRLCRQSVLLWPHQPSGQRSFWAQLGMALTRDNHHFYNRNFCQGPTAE
Procedure: (§1) TLR7/8/9 Inhibition Reporter Assays
(§2) HEK-Blue™-cells (Invivogen) overexpressing human TLR7, TLR8 or TLR9 receptors were used for screening inhibitors of these receptors using an inducible SEAP (secreted embryonic alkaline phosphatase) reporter gene under the control of the […] minimal promoter fused to five NF-κB and AP-1-binding sites. Briefly, cells are seeded into Greiner 384 well plates (15000 cells per well for TLR7, 20,000 for TLR8 and 25,000 for TLR9) and then treated with test compounds in DMSO to yield a final dose response concentration range of 0.05 nM-50 μM. After a 30 minute compound pre-treatment at room temperature, the cells are then stimulated with a TLR7 ligand (gardiquimod at a final concentration of 7.5 μM), TLR8 ligand (R848 at a final concentration of 15.9 μM) or TLR9 ligand (ODN2006 at a final concentration of 5 nM) to activate NF-κB and AP-1 which induce the production of SEAP. After a 22 hour incubation at 37° C., 5% CO2, SEAP levels are determined with the addition of HEK-Blue™ Detection reagent (Invivogen), a cell culture medium that allows for detection of SEAP, according to manufacturer's specifications. The percent inhibition is determined as the % reduction in the HEK-Blue signal present in wells treated with agonist plus DMSO alone compared to wells treated with a known inhibitor.

human TLR7 = biological target: T2, human TLR7 (Homo sapiens, UniProt Q9NYK1); assay: TLR7 inhibition reporter assay (HEK-Blue cells, SEAP reporter); conditions: HEK-Blue cells overexpressing human TLR7; stimulated with gardiquimod 7.5 μM; 22 hour incubation; SEAP readout
T2 sequence (Q9NYK1 27-1049): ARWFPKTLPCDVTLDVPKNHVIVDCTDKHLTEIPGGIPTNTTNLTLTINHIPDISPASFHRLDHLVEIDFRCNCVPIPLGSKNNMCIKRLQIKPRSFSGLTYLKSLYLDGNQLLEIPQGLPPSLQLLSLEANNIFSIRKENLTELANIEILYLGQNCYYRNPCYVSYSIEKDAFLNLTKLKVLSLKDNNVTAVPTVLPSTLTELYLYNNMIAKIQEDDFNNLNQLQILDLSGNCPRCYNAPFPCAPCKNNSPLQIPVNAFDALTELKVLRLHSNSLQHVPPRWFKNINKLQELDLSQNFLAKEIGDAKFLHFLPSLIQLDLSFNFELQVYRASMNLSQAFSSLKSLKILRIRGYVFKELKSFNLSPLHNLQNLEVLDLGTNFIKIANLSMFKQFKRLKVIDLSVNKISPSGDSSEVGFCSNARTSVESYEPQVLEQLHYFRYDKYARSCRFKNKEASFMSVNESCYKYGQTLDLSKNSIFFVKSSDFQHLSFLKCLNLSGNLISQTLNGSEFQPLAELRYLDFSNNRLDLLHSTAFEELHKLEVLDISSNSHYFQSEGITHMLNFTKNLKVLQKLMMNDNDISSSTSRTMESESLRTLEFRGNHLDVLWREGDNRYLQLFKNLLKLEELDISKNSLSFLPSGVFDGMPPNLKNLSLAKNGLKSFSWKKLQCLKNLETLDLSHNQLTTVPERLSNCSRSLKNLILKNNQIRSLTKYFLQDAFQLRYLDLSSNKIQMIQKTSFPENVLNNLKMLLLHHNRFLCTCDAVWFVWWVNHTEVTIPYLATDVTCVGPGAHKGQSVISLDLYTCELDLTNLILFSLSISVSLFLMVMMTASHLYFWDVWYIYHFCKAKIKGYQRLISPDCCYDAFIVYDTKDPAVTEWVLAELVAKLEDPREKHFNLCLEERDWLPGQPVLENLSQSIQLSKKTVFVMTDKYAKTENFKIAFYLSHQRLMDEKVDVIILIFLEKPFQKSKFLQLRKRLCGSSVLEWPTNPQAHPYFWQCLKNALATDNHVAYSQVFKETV
Procedure: as §1, §2

human TLR8 = biological target: T3, human TLR8 (Homo sapiens, UniProt Q9NR97); assay: TLR8 inhibition reporter assay (HEK-Blue cells, SEAP reporter); conditions: HEK-Blue cells overexpressing human TLR8; stimulated with R848 15.9 μM; 22 hour incubation; SEAP readout
T3 sequence (Q9NR97 27-1041): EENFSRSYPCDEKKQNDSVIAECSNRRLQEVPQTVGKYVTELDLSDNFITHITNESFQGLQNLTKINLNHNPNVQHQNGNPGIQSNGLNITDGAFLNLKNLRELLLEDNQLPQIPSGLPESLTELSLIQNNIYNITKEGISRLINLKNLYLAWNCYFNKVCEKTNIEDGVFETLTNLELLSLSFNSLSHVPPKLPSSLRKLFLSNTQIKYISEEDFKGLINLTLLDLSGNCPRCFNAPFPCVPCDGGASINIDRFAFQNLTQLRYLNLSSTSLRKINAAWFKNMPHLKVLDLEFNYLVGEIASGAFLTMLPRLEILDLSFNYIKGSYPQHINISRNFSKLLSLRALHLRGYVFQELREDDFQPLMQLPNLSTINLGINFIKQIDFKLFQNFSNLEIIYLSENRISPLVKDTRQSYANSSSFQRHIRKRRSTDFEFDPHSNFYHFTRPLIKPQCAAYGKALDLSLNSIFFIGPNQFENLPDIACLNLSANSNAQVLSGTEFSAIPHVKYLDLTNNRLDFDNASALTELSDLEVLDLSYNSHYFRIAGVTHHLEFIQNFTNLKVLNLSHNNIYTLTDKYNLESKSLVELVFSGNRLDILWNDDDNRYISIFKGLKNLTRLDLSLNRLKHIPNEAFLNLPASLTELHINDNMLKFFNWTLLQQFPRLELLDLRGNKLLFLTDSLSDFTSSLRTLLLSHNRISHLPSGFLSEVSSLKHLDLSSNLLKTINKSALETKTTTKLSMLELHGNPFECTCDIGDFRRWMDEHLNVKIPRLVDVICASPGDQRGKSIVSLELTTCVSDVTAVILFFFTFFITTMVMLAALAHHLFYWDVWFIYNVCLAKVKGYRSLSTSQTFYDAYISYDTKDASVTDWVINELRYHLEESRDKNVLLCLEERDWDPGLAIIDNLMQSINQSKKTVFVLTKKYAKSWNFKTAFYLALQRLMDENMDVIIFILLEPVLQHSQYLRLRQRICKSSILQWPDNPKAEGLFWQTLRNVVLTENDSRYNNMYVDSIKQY
Procedure: as §1, §2

Cc1cc(-c2ccc(N3CCN(C(C)C)CC3)cc2)cn2cc(-c3ccc(S(C)(=O)=O)cc3)nc12 [Example 65, 6-(4-(4-isopropylpiperazin-1-yl)phenyl)-8-methyl-2-(4-(methylsulfonyl)phenyl) imidazo[1,2-a]pyridine]
IC50 (human TLR9): 670 nM | IC50 (human TLR7): 4800 nM | IC50 (human TLR8): > 50000 nM

COc1ccc(-c2cn3c(n2)CCC(C2CCN(C4CC5(C4)CN(CC(C)C)C5)CC2)C3)cc1OC (racemic) [Example 52, 2-(3,4-dimethoxyphenyl)-6-(1-(2-isobutyl-2-azaspiro[3.3]heptan-6-yl)piperidin-4-yl)-5,6,7,8-tetrahydroimidazo[1,2-a]pyridine]
IC50 (human TLR9): 114 nM | IC50 (human TLR7): 18000 nM | IC50 (human TLR8): > 50000 nM

COc1ccc(-c2cn3c(n2)CCC(C2CCN(C4CC5(C4)CN(CC(C)C)C5)CC2)C3)cc1OC (single isomer, unassigned) [Example 54, 2-(3,4-dimethoxyphenyl)-6-(1-(2-isobutyl-2-azaspiro[3.3]heptan-6-yl)piperidin-4-yl)-5,6,7,8-tetrahydroimidazo[1,2-a]pyridine]
IC50 (human TLR9): 1.5 nM | IC50 (human TLR7): 830 nM | IC50 (human TLR8): > 50000 nM

Cc1cc(C2CCN(C3CCN(C4CC4)CC3)CC2)cn2cc(-c3ccc(S(C)(=O)=O)cc3)nc12 [Example 7, 6-(1′-cyclopropyl-[1,4′-bipiperidin]-4-yl)-8-methyl-2-(4-(methylsulfonyl)phenyl) imidazo[1,2-a]pyridine]
IC50 (human TLR9): 132 nM | IC50 (human TLR7): 7800 nM | IC50 (human TLR8): > 50000 nM

COc1ccc(-c2cn3cc(-c4ccc(N5CCN(C6COC6)CC5)cc4)cc(C)c3n2)cc1OC [Example 64, 2-(3,4-dimethoxyphenyl)-8-methyl-6-(4-(4-(oxetan-3-yl)piperazin-1-yl)phenyl) imidazo[1,2-a]pyridine]
IC50 (human TLR9): 2380 nM | IC50 (human TLR7): > 25000 nM | IC50 (human TLR8): > 25000 nM

Cc1cc(-c2ccc(N3CCN(C4CCC4)CC3)cc2)cn2cc(-c3ccc(S(C)(=O)=O)cc3)nc12 [Example 102, 6-(4-(4-cyclobutylpiperazin-1-yl)phenyl)-8-methyl-2-(4-(methylsulfonyl)phenyl) imidazo[1,2-a]pyridine]
IC50 (human TLR9): 710 nM | IC50 (human TLR7): 6300 nM | IC50 (human TLR8): 17000 nM

COc1ccc(-c2cn3cc(C4CC5CCC(C4)N5C4CCN(C5CC5)CC4)cc(C)c3n2)cc1OC (single isomer, unassigned) [Example 26, 6-(8-(1-cyclopropylpiperidin-4-yl)-8-azabicyclo[3.2.1]octan-3-yl)-2-(3,4-dimethoxyphenyl)-8-methylimidazo[1,2-a]pyridine]
IC50 (human TLR9): 86 nM | IC50 (human TLR7): 2000 nM | IC50 (human TLR8): > 50000 nM

CC(C)CN1C2CCC1CC(N1CCC(c3cc(F)c4nc(-c5ccc(S(C)(=O)=O)cc5)cn4c3)CC1)C2 (single isomer, unassigned) [Example 113, 8-fluoro-6-(1-(8-isobutyl-8-azabicyclo[3.2.1]octan-3-yl)piperidin-4-yl)-2-(4-(methylsulfonyl)phenyl)imidazo[1,2-a]pyridine]
IC50 (human TLR9): 31 nM | IC50 (human TLR7): 600 nM | IC50 (human TLR8): > 50000 nM

CS(=O)(=O)c1ccc(-c2cn3cc(C4CCN(C5CCCN(C6CCOCC6)CC5)CC4)cc(F)c3n2)cc1 (single isomer, unassigned) [Example 129, 8-fluoro-2-(4-(methylsulfonyl)phenyl)-6-(1-(1-(tetrahydro-2H-pyran-4-yl)azepan-4-yl)piperidin-4-yl)imidazo[1,2-a]pyridine]
IC50 (human TLR9): 20 nM | IC50 (human TLR7): > 50000 nM | IC50 (human TLR8): > 50000 nM

Cc1cc(C2CCN(C3CCN(C(C)C)CC3)CC2)cc2nc(-c3ccc(S(C)(=O)=O)cc3)cn12 [Example 66, 7-(1′-isopropyl-[1,4′-bipiperidin]-4-yl)-5-methyl-2-(4-(methylsulfonyl)phenyl) imidazo[1,2-a]pyridine]
IC50 (human TLR9): 62 nM | IC50 (human TLR7): 14300 nM | IC50 (human TLR8): > 50000 nM

CC(C)CN1CCCC(N2CCC(c3cc(F)c4nc(-c5ccc(S(C)(=O)=O)cc5)cn4c3)CC2)CC1 (single isomer, unassigned) [Example 125, 8-fluoro-6-(1-(1-isobutylazepan-4-yl)piperidin-4-yl)-2-(4-(methylsulfonyl)phenyl) imidazo[1,2-a]pyridine]
IC50 (human TLR9): 20 nM | IC50 (human TLR7): 12700 nM | IC50 (human TLR8): 47400 nM

— patent US12486267B2, “Imidazo[1,2-A]pyridine and [1,2,4]triazolo[1,5-A]pyridine derivatives as TLR9 inhibitors for the treatment of fibrosis” (BRISTOL-MYERS SQUIBB COMPANY, priority 2020, dated 2025)
